Measured values reported in ChEMBL document CHEMBL1201862, “PubChem BioAssay data set” (2004).
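Values below derive from 48-hour exposures of cells grown in 96-well plates, with endpoints linearly interpolated between the two concentrations bracketing the appropriate inhibition level. GI50 marks 50% less growth.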 Activity calls are given as the source filed them. Cut-off read from the data, not from the text of the source: active = GI50 up to about 1.1 µM and inactive = higher.

What was measured:
Experiment in all cases: NCI-60 cell line screen, 48 h
HOP-92 = tested on: HOP-92
RPMI-8226 = tested on: RPMI-8226
EKVX = tested on: EKVX
NCI-H226 = tested on: NCI-H226
NCI-H23 = tested on: NCI-H23
ACHN = tested on: ACHN
SF-295 = tested on: SF-295
COLO 205 = tested on: COLO 205
OVCAR-8 = tested on: OVCAR-8
786-0 = tested on: 786-0
MDA-MB-231 = tested on: MDA-MB-231
OVCAR-5 = tested on: OVCAR-5
MOLT-4 = tested on: MOLT-4
UO-31 = tested on: UO-31
SR = tested on: SR
CCRF-CEM = tested on: CCRF-CEM
HCC 2998 = tested on: HCC 2998
RXF 393 = tested on: RXF 393
U-251 = tested on: U-251
SK-MEL-5 = tested on: SK-MEL-5

| SMILES | GI50 (HOP-92) | GI50 (RPMI-8226) | GI50 (EKVX) | GI50 (NCI-H226) | GI50 (NCI-H23) | GI50 (ACHN) | GI50 (SF-295) | GI50 (COLO 205) | GI50 (OVCAR-8) | GI50 (786-0) | GI50 (MDA-MB-231) | GI50 (OVCAR-5) | GI50 (MOLT-4) | GI50 (UO-31) | GI50 (SR) | GI50 (CCRF-CEM) | GI50 (HCC 2998) | GI50 (RXF 393) | GI50 (U-251) | GI50 (SK-MEL-5) |
| --- | --- | --- | --- | --- | --- | --- | --- | --- | --- | --- | --- | --- | --- | --- | --- | --- | --- | --- | --- | --- |
| CC1(C)C=[N+]([O-])C(C)(C)N1O | > 10 µM (inactive) | > 10 µM (inactive) | > 10 µM (inactive) | > 10 µM (inactive) | > 10 µM (inactive) | > 10 µM (inactive) | > 10 µM (inactive) | > 10 µM (inactive) | > 10 µM (inactive) | > 10 µM (inactive) | > 10 µM (inactive) | > 10 µM (inactive) | > 10 µM (inactive) | > 10 µM (inactive) | > 10 µM (inactive) | > 10 µM (inactive) | > 10 µM (inactive) | > 10 µM (inactive) | > 10 µM (inactive) | – |
| NCCNc1ccc(NCCN)c2c1C(=O)c1c(O)ccc(O)c1C2=O | 0.00686 µM (active) | 0.0106 µM (active) | 0.436 µM (active) | 0.0018 µM (active) | 0.00728 µM (active) | 0.00542 µM (active) | 0.00445 µM (active) | 1.08 µM (active) | 0.0158 µM (active) | 0.00459 µM (active) | 0.681 µM (active) | 0.971 µM (active) | < 0.001 µM (active) | 0.0391 µM (active) | < 0.001 µM (active) | 0.00791 µM (active) | 0.423 µM (active) | 0.0719 µM (active) | – | 0.129 µM (active) |
| c1ccc(CSCCC(SCc2ccccc2)SCc2ccccc2)cc1 | 9.66 µM (inactive) | > 10 µM (inactive) | > 10 µM (inactive) | > 10 µM (inactive) | > 10 µM (inactive) | > 10 µM (inactive) | > 10 µM (inactive) | > 10 µM (inactive) | > 10 µM (inactive) | > 10 µM (inactive) | > 10 µM (inactive) | – | > 10 µM (inactive) | > 10 µM (inactive) | > 10 µM (inactive) | > 10 µM (inactive) | > 10 µM (inactive) | > 10 µM (inactive) | > 10 µM (inactive) | > 10 µM (inactive) |
| COc1ccc2c(c1OC)OC[C@@H](C1=CC(=O)C=C(O)C1=O)C2 | 1.89 µM (inactive) | 1.91 µM (inactive) | 12.5 µM (inactive) | 19.6 µM (inactive) | 16.5 µM (inactive) | 4.8 µM (inactive) | 16.1 µM (inactive) | 21.3 µM (inactive) | 19.1 µM (inactive) | 5.38 µM (inactive) | 4.46 µM (inactive) | 18 µM (inactive) | 0.838 µM (active) | 12.6 µM (inactive) | 6.31 µM (inactive) | 1.36 µM (inactive) | 17.2 µM (inactive) | 6.4 µM (inactive) | 11.7 µM (inactive) | 12.5 µM (inactive) |
| O=CC1OC(=O)c2cc(O)c(O)c(O)c2-c2c(cc(O)c(O)c2O)C(=O)OC1C(O)C(O)CO (stereo not given) | > 100 µM (inactive) | 26.2 µM (inactive) | > 100 µM (inactive) | > 100 µM (inactive) | > 100 µM (inactive) | 43.6 µM (inactive) | 27.9 µM (inactive) | 45.5 µM (inactive) | 19.8 µM (inactive) | > 100 µM (inactive) | 17.1 µM (inactive) | > 100 µM (inactive) | 22.9 µM (inactive) | > 100 µM (inactive) | 20.6 µM (inactive) | 38.8 µM (inactive) | > 100 µM (inactive) | > 100 µM (inactive) | 17.9 µM (inactive) | 51.6 µM (inactive) |
| CC1C2CC(C(S(=O)(=O)N3CCOCC3)/C2=N\O)C1(C)C (stereo not given) | > 100 µM (inactive) | > 100 µM (inactive) | > 100 µM (inactive) | > 100 µM (inactive) | > 100 µM (inactive) | > 100 µM (inactive) | > 100 µM (inactive) | > 100 µM (inactive) | > 100 µM (inactive) | > 100 µM (inactive) | > 100 µM (inactive) | – | > 100 µM (inactive) | > 100 µM (inactive) | > 100 µM (inactive) | > 100 µM (inactive) | > 100 µM (inactive) | > 100 µM (inactive) | – | > 100 µM (inactive) |
| COC(=O)[C@]12CC[C@H]3CN(S(=O)(=O)c4ccc(C)cc4)[C@H]([C@H]31)[C@H](c1ccco1)N2S(=O)(=O)c1ccc(C)cc1 | 10.1 µM (inactive) | 20 µM (inactive) | 51.1 µM (inactive) | 42.5 µM (inactive) | 48.1 µM (inactive) | 39.7 µM (inactive) | 35.6 µM (inactive) | 20.5 µM (inactive) | 27.8 µM (inactive) | 59.7 µM (inactive) | 55.8 µM (inactive) | > 100 µM (inactive) | 31.1 µM (inactive) | 29.3 µM (inactive) | 38.7 µM (inactive) | 45.3 µM (inactive) | 78.2 µM (inactive) | 16.8 µM (inactive) | 64.3 µM (inactive) | 37.2 µM (inactive) |
| COc1ccc(-c2cc(-c3ccc(Nc4ccnc5cc(Cl)ccc45)cc3)nc(N)c2C#N)cc1 | > 100 µM (inactive) | > 100 µM (inactive) | > 100 µM (inactive) | > 100 µM (inactive) | > 100 µM (inactive) | > 100 µM (inactive) | > 100 µM (inactive) | > 100 µM (inactive) | > 100 µM (inactive) | > 100 µM (inactive) | > 100 µM (inactive) | > 100 µM (inactive) | > 100 µM (inactive) | 27.4 µM (inactive) | > 100 µM (inactive) | – | > 100 µM (inactive) | > 100 µM (inactive) | > 100 µM (inactive) | – |
| O=C[C@@H](CO)O[C@H](C=O)n1cnc2c(=O)nc[nH]c21 | 153 µM (inactive) | 131 µM (inactive) | 357 µM (inactive) | 583 µM (inactive) | 243 µM (inactive) | 540 µM (inactive) | 619 µM (inactive) | 288 µM (inactive) | 404 µM (inactive) | 607 µM (inactive) | 128 µM (inactive) | 634 µM (inactive) | 123 µM (inactive) | 401 µM (inactive) | 181 µM (inactive) | 77.3 µM (inactive) | 116 µM (inactive) | 239 µM (inactive) | 748 µM (inactive) | 378 µM (inactive) |
| COc1cc(C2SC(=N)Nc3c2c(C)nn3C(=O)c2ccc(Cl)cc2)cc(OC)c1OC (stereo not given) | > 10 µM (inactive) | > 10 µM (inactive) | > 10 µM (inactive) | > 10 µM (inactive) | > 10 µM (inactive) | > 10 µM (inactive) | > 10 µM (inactive) | > 10 µM (inactive) | > 10 µM (inactive) | > 10 µM (inactive) | > 10 µM (inactive) | > 10 µM (inactive) | > 10 µM (inactive) | – | > 10 µM (inactive) | > 10 µM (inactive) | > 10 µM (inactive) | > 10 µM (inactive) | > 10 µM (inactive) | > 10 µM (inactive) |
| CN(C)c1nc2n(CCO)ccnc-2c(=O)n1 | > 100 µM (inactive) | > 100 µM (inactive) | > 100 µM (inactive) | > 100 µM (inactive) | > 100 µM (inactive) | > 100 µM (inactive) | > 100 µM (inactive) | > 100 µM (inactive) | > 100 µM (inactive) | > 100 µM (inactive) | > 100 µM (inactive) | > 100 µM (inactive) | > 100 µM (inactive) | > 100 µM (inactive) | > 100 µM (inactive) | > 100 µM (inactive) | > 100 µM (inactive) | > 100 µM (inactive) | > 100 µM (inactive) | > 100 µM (inactive) |
| O=c1oc2cc(O)ccc2cc1-c1nc2ccccc2o1 | 26.7 µM (inactive) | 24.3 µM (inactive) | 28.5 µM (inactive) | 61.5 µM (inactive) | 32.6 µM (inactive) | 32.3 µM (inactive) | 44.9 µM (inactive) | 30.8 µM (inactive) | 34.8 µM (inactive) | 30.5 µM (inactive) | 35.6 µM (inactive) | > 100 µM (inactive) | 24.7 µM (inactive) | 26.9 µM (inactive) | 30.9 µM (inactive) | 8.87 µM (inactive) | 39.8 µM (inactive) | < 0.01 µM (active) | 28.7 µM (inactive) | 19.5 µM (inactive) |
| CCc1c(Cc2cc(C)cc(C)c2)n2c(nc1=O)SCC2CBr (stereo not given) | 9.93 µM (inactive) | > 50 µM (inactive) | 27 µM (inactive) | > 50 µM (inactive) | > 50 µM (inactive) | > 50 µM (inactive) | – | > 50 µM (inactive) | 10.4 µM (inactive) | > 50 µM (inactive) | 19.6 µM (inactive) | > 50 µM (inactive) | 34 µM (inactive) | > 50 µM (inactive) | > 50 µM (inactive) | 12.6 µM (inactive) | > 50 µM (inactive) | > 50 µM (inactive) | 24.8 µM (inactive) | > 50 µM (inactive) |
| O=c1c(C(c2cccc(C(c3c(O)oc4ccccc4c3=O)c3c(O)oc4ccccc4c3=O)c2)c2c(O)oc3ccccc3c2=O)c(O)oc2ccccc12 | 27.7 µM (inactive) | 33.2 µM (inactive) | 67.3 µM (inactive) | 44.7 µM (inactive) | 22.8 µM (inactive) | 36.6 µM (inactive) | 41.5 µM (inactive) | 86.3 µM (inactive) | 21.1 µM (inactive) | 17.7 µM (inactive) | 20.8 µM (inactive) | > 100 µM (inactive) | 29.2 µM (inactive) | – | 28.4 µM (inactive) | 32.4 µM (inactive) | 15.6 µM (inactive) | > 100 µM (inactive) | 26.3 µM (inactive) | 13.2 µM (inactive) |
